Test results published in publication PMC10285260, “Processive kinetics in the three-step lanosterol 14α-demethylation reaction catalyzed by human cytochrome P450 51A1” (The Journal of Biological Chemistry, 2023).
Read-outs that look alike come from different tables or passages of the source.

Columns and labels:
[1] = test system: human P450 51A1; assay: Kinetic modeling (KinTek Explorer) of the single-turnover time course
Text: The initial koff rate constants used in fitting were the koff rates measured in the stopped-flow trap experiments (Fig. 9). All three oxidation reactions are irreversible, and thus k-2, k-4, and k-6 were set to zero.
Data were imported into KinTek Explorer software (v. 11.01, KinTek, https://kintekcorp.com/software) ([63], [64]) as txt files and processed using an Apple computer (operating system 11.6.2).

[2] = biological target: T1, human P450 51A1 (Homo sapiens, UniProt Q16850); assay: Stopped-flow koff measurements of P450 51A1-sterol complexes with ketoconazole trap; type: binding; set-up: made in house; host or cells: Escherichia coli; conditions: 23 °C, 10 μM ketoconazole trap, 1 μM P450 51A1
T1 sequence (Q16850 1-509): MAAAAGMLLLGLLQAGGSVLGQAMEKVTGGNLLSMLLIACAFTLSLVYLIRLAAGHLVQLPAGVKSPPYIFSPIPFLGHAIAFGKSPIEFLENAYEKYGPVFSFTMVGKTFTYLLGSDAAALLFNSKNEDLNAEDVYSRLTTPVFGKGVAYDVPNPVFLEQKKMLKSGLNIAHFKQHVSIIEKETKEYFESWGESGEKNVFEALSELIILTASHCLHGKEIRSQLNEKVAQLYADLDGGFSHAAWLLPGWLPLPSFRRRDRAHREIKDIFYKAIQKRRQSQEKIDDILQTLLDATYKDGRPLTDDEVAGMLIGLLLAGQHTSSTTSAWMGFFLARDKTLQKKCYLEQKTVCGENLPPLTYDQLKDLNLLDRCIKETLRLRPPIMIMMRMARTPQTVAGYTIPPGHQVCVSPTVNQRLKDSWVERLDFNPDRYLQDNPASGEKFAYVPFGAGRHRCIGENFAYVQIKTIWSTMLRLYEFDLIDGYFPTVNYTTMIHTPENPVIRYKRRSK
Description: All assays were done at 23 °C in an OLIS-RSM 1000 stopped-flow spectrophotometer, collecting data every 1 ms over a range of 332 to 565 nm with slit widths of 1.24 mm (8 nm bandpass) and gratings with 400 lines/mm and 500 nm blaze. One syringe contained 20 μM ketoconazole dissolved in 100 mM potassium phosphate buffer (pH 7.4). In a preliminary experiment in which this was mixed with an equal volume of 2 μM P450 51A1 (same buffer), the observed rate of binding (ΔA430) was 25 s^−1.
P450 51A1 (2 μM) was premixed with an equivalent concentration of each of the sterols (in HPCD). Each of these solutions was placed in a drive syringe and rapidly mixed with 20 μM ketoconazole (yielding final concentrations of 1 μM P450 51A1 and 10 μM ketoconazole). The rate of the ΔA430-A390 change was used as the koff rate, that is, the rate at which the sterol left the P450 and allowed it to bind to the trap ligand ketoconazole.

[3] = biological target: T1, human P450 51A1; assay: Spectral (difference spectroscopy) Kd estimates of P450 51A1-sterol complexes; type: binding; set-up: made in house; host or cells: Escherichia coli
Description: Kd values were estimated by difference spectroscopy. P450 51A1 (1.0 μM) was in each of two glass cuvettes (in 100 mM potassium phosphate buffer, pH 7.4) and a baseline was recorded (OLIS-Amino DW2a). Aliquots of a solution of each sterol–HPCD complex were added to the sample cuvette and an equivalent amount of HPCD was added to the reference cuvette, and spectra were recorded. The time between the collection of individual spectra was ∼3 min. The maximum absorbance difference (usually ΔA390-A418) was plotted versus the nominal concentration of added sterol, and the data were fit to hyperbolae in GraphPad Prism software (GraphPad, https://www.graphpad.com), using a quadratic equation to correct the ligand concentration for the enzyme-bound concentration (used as Y=B+(A/2)∗(1/E)∗((Kd+E+X)-sqrt((Kd + E+X)^∧2-(4∗E∗X)) in Prism software). The linear regression fits include the internal error estimates (SE).

[4] = biological target: T1, human P450 51A1; assay: Single-turnover rapid-quench kinetics of [3-3H]-dihydrolanosterol oxidation (radio-HPLC); type: biochemical; set-up: made in house; host or cells: Escherichia coli
Description: All products were separated and quantified by radio-HPLC (Fig. S24).
Samples (held at 4 °C) were injected (45 μl) onto a Nova-Pak 3.9 mm × 150 mm (4 μm) octadecylsilane (C18) HPLC column (held at 23 °C). The products were separated at a flow rate of 1.0 ml min^−1 using an isocratic mobile phase composed of CH3CN (only) as was done for the LC-UV assays (above). The eluate from the column was mixed (1:2, v-v) with FlowLogic U scintillation cocktail, and radioactivity (^3H) was detected on a β-RAM Model 5 system (IN/US, LabLogic) (Fig. S24). Product formation was assessed as the relative contribution of each peak (in CPM) to the summed peak area of substrate and product(s).
The single-turnover experiments were performed using a KinTek rapid quench-flow apparatus (KinTek). This machine functions by forcing equal volumes (∼19 μl) of two separate solutions into a central mixing chamber, where the components are allowed to incubate for a predetermined period of time before an excess volume of quench solution (∼160 μl) stops the reaction and expels the mixture from the apparatus. […] After the predetermined incubation period, the reaction (37 °C) was quenched with HCl (1 M), and the mixture (∼200 μl) was collected into vials. The products of five identical reactions (time points) were combined and were extracted into CH2Cl2 (5 ml). An aliquot (4 ml) of the lower (organic) layer was removed into a fresh vial, and the extraction was repeated to maximize sample recovery. The pooled organic fraction (∼8 ml) was brought to dryness under a stream of N2 gas, and the residue was redissolved in 60 μl of CH3OH and transferred to LC vials for analysis.

[5] = biological target: T1, human P450 51A1; assay: Steady-state LC-UV assay of sterol oxidation to dihydro FF-MAS by reconstituted P450 51A1; conditions: oxidation to dihydro FF-MAS (epi-dihydro FF-MAS from epi substrate), 37 °C
Description: Steady-state incubations (500 μl) were generally done at 37 °C with 0.025 μM P450 51A1, 0.10 μM NADPH-P450 reductase, 100 μM L-α-dilauroyl-sn-glycero-3-phosphocholine, 50 mM potassium phosphate buffer (pH 7.4), 10% (v/v) glycerol, and an indicated concentration of each sterol (in 45% (w/v) HPCD). […] The sterols (stored at 4 °C) were prepared as described above and were heated to 37 °C and sonicated prior to use. Sterol working stocks were diluted in HPCD to ensure a constant concentration of cyclodextrin in each reaction. […] Accordingly, all reactions were done with this concentration of glycerol.
Reactions were preincubated (5 min, 37 °C) prior to initiation with an NADPH-regenerating system (0.5 mM NADP^+, 10 mM glucose 6-phosphate, and 2 μg ml^−1 glucose 6-phosphate dehydrogenase) ([60]) and were stopped after 5 min with the addition of CH2Cl2 (5 ml). (The NADPH-generating system, in addition to lower cost than NADPH, drives the reaction to avoid inhibition of the reductase by accumulated NADP^+). For the 14α-aldehyde, the times of preincubation and reaction were reduced (to 2 min and 1 min, respectively). The quenched mixture was centrifuged (2000g, 5 min), and 4 ml of the bottom (organic) layer was transferred to vials and brought to dryness under a stream of N2 gas. The dried residue was resuspended in CH3OH (100 μl) and was analyzed by UPLC using a 2.1 mm × 100 mm (1.7 μm) octadecylsilane (C18) column (held at 25 °C) and a Waters Acquity UPLC system. Samples (4 °C) were injected (10 μl) at a flow rate of 0.20 ml min^−1 using an isocratic mobile phase of CH3CN (only). The product (FF-MAS) was detected using a Waters Acquity photodiode array detector set at 250 nm (Fig. 4B). Data were processed using the MassLynx software (http://www.waters.com/waters/en_US/MassLynx-Mass-Spectrometry-Software-/nav.htm?cid=513164&locale=en_US), and the amount of product formed was calculated by comparison to a twelve-point dihydro FF-MAS standard curve. Determination of kcat and Km for each reaction was carried out by fitting the data to a Michaelis–Menten hyperbola, which was done using GraphPad Prism.
Incubations were run in triplicate, and the mean values (±SD) were calculated and plotted. The linear regression fits include the Prism error estimates for internal fitting (SE).

[6] = biological target: T1, human P450 51A1; assay: Stopped-flow rate of ketoconazole binding to P450 51A1; set-up: made in house; host or cells: Escherichia coli; conditions: 10 μM ketoconazole, 1 μM P450 51A1 final
[7] = substrate: CC(C)CCCC(C)[C@H]1CC[C@@]2(C)C3=C(CC[C@]12C)[C@@]1(C)CC[C@@H](O)C(C)(C)C1CC3; assay: purified protein, by the assay type; conditions: other: oxidation to dihydro FF-MAS (epi-dihydro FF-MAS from epi substrate), 37 °C, pH 7.4
Description: (§1) Steady-state incubations (500 μl) were generally done at 37 °C with 0.025 μM P450 51A1, 0.10 μM NADPH-P450 reductase, 100 μM L-α-dilauroyl-sn-glycero-3-phosphocholine, 50 mM potassium phosphate buffer (pH 7.4), 10% (v/v) glycerol, and an indicated concentration of each sterol (in 45% (w/v) HPCD). Due to the high turnover rate of the 14α-aldehyde, the P450 and NADPH-P450 reductase concentrations were reduced (to 0.01 μM and 0.04 μM, respectively), and the reaction volume was increased (to 1 ml) to maximize sensitivity. The sterols (stored at 4 °C) were prepared as described above and were heated to 37 °C and sonicated prior to use. Sterol working stocks were diluted in HPCD to ensure a constant concentration of cyclodextrin in each reaction. […] Accordingly, all reactions were done with this concentration of glycerol.
(§2) Reactions were preincubated (5 min, 37 °C) prior to initiation with an NADPH-regenerating system (0.5 mM NADP^+, 10 mM glucose 6-phosphate, and 2 μg ml^−1 glucose 6-phosphate dehydrogenase) ([60]) and were stopped after 5 min with the addition of CH2Cl2 (5 ml). […] For the 14α-aldehyde, the times of preincubation and reaction were reduced (to 2 min and 1 min, respectively). The quenched mixture was centrifuged (2000g, 5 min), and 4 ml of the bottom (organic) layer was transferred to vials and brought to dryness under a stream of N2 gas. The dried residue was resuspended in CH3OH (100 μl) and was analyzed by UPLC using a 2.1 mm × 100 mm (1.7 μm) octadecylsilane (C18) column (held at 25 °C) and a Waters Acquity UPLC system. Samples (4 °C) were injected (10 μl) at a flow rate of 0.20 ml min^−1 using an isocratic mobile phase of CH3CN (only). The product (FF-MAS) was detected using a Waters Acquity photodiode array detector set at 250 nm (Fig. 4B). Data were processed using the MassLynx software (http://www.waters.com/waters/en_US/MassLynx-Mass-Spectrometry-Software-/nav.htm?cid=513164&locale=en_US), and the amount of product formed was calculated by comparison to a twelve-point dihydro FF-MAS standard curve. Determination of kcat and Km for each reaction was carried out by fitting the data to a Michaelis–Menten hyperbola, which was done using GraphPad Prism.

[8] = substrate: CC(C)CCCC(C)[C@H]1CC[C@@]2(CO)C3=C(CC[C@]12C)[C@@]1(C)CC[C@H](O)C(C)(C)C1CC3; assay: purified protein, by the assay type; conditions: other: oxidation to dihydro FF-MAS (epi-dihydro FF-MAS from epi substrate), 37 °C, pH 7.4
Description: as §1, §2

[9] = substrate: CC(C)CCCC(C)[C@H]1CC[C@@]2(C=O)C3=C(CC[C@]12C)[C@@]1(C)CC[C@H](O)C(C)(C)C1CC3; assay: purified protein, by the assay type; conditions: other: oxidation to dihydro FF-MAS (epi-dihydro FF-MAS from epi substrate), 37 °C, pH 7.4
Description: as §1, §2

[10] = substrate: CC(C)CCCC(C)[C@H]1CC[C@@]2(C)C3=C(CC[C@]12C)[C@@]1(C)CC[C@H](O)C(C)(C)C1CC3; assay: purified protein, by the assay type; conditions: pH 7.4

Molecule: CC(C)CCC[C@@H](C)[C@H]1CC=C2C3=C(CC[C@@]21C)[C@@]1(C)CC[C@H](O)C(C)(C)[C@@H]1CC3 [dihydro FF-MAS, 24,25-dihydro FF-MAS]
- k^+ of sterol binding to P450 51A1 (kon) used for fitting ([1]; all kon set at this value): 2e+06 M⁻¹ s⁻¹
- k^- of sterol binding to P450 51A1 (koff) used for fitting ([1]; optimized model): 2.0 s⁻¹
- koff [2]: 2 s⁻¹
- Kd ([3]; 1.0 μM P450 51A1, quadratic fit, read-out: Kd): 1.4 µM
- concentration in single-turnover reaction ([4]; time 0.05 s, start 7 µM dihydrolanosterol): 0 µM
- concentration in single-turnover reaction ([4]; time 0.1 s): 0 µM
- concentration in single-turnover reaction ([4]; time 0.15 s): 0.2821 µM
- concentration in single-turnover reaction ([4]; time 0.2 s): 0.4249 µM
- concentration in single-turnover reaction ([4]; time 0.3 s): 0.7518 µM
- concentration in single-turnover reaction ([4]; time 0.4 s): 1.2019 µM
- concentration in single-turnover reaction ([4]; time 0.6 s): 2.506 µM
- concentration in single-turnover reaction ([4]; time 0.8 s): 3.0184 µM
- concentration in single-turnover reaction ([4]; time 1 s): 4.0537 µM
- concentration in single-turnover reaction ([4]; time 1.2 s): 4.494 µM
- concentration in single-turnover reaction ([4]; time 1.6 s): 4.8181 µM
- concentration in single-turnover reaction ([4]; time 2 s): 5.2031 µM
- concentration in single-turnover reaction ([4]; time 3 s): 5.8863 µM
- concentration in single-turnover reaction ([4]; time 4 s): 6.6353 µM
- concentration in single-turnover reaction ([4]; time 7 s): 7 µM

Molecule: CC(C)CCCC(C)[C@H]1CC[C@@]2(C)C3=C(CC[C@]12C)[C@@]1(C)CC[C@@H](O)C(C)(C)C1CC3 (stereo partly drawn) [epi-dihydrolanosterol, epi-Dihydrolanosterol]
- kcat [5]: 0.42 ± 0.03 s⁻¹
- Kd [3]: 0.014 µM

Molecule: CC(=O)N1CCN(c2ccc(OCC3COC(Cn4ccnc4)(c4ccc(Cl)cc4Cl)O3)cc2)CC1 (centres unmarked) [ketoconazole]
- pseudo-first-order observed rate of binding [6]: 25 s⁻¹

B1: human P450 51A1 (Homo sapiens) (protein)
chain: T1 sequence (Q16850 1-509)
- Km [7]: 2.0 ± 0.4 µM
- Km [8]: 4.3 ± 0.4 µM
- kcat [8]: 0.67 ± 0.03 s⁻¹
- Km [9]: 5.4 ± 0.7 µM
- kcat [9]: 1.7 ± 0.1 s⁻¹
- kcat/Km ([10]; other: conversion to dihydro FF-MAS, isotope effect comparison): 1.3 (±0.2) × 10^5 M^−1 s^−1
- Km ([10]; other: oxidation to dihydro FF-MAS (epi-dihydro FF-MAS from epi substrate), 37 °C): 5.0 ± 0.6 µM
